Several values for one entry are separate records, joined by “and”; a condition that tells them apart may be missing. Identical values can stand only once. Like-named read-outs stand apart in the source and are kept apart here.
What was measured:
JAK1 = JAK1 (Homo sapiens (Human), UniProt P23458); assay: Z′-Lyte kinase inhibitory activity test; assay type: biochemical; settings: ATP concentration Km
Protocol: (§1) Test method: Firstly, test compounds were prepared into 10 mM stock solution with DMSO, and continuously diluted into 10 concentrations at a 3-fold gradient for later use. 5X reaction buffer was diluted with deionized water into 1×reaction buffer (50 mM HEPES pH 7.5, 0.01% Brij-35, 10 mM MgCl2, 1 mM EGTA), which was used to prepare a mixture of kinase and peptide substrate, as well as a phosphorylated peptide substrate solution. The kinase concentration was determined based on enzyme titration, and the final concentration of peptide substrate and phosphorylated peptide substrate was 2 μM. 5 μL of mixture substrate of kinase and peptide substrate was added to each well on the 384 well plate. Then 5 nL of the test compound (starting with a final concentration of 10 μM) was added with an Echo520 Sampler. […] An additional 100% phosphorylation well (5 μL phosphorylated peptide substrate solution), a 0% phosphorylated well (5 μL of a mixture of kinase and peptide substrate, without test compounds and ATP), and a 0% inhibitory well (5 μL of a mixture of kinase and peptide substrate and appropriate concentration of ATP) were set as control. Two repeats were set for each concentration. The above reaction system was incubated at 30° C. for 1.5 hours. […] 2.5 μL of the diluted mixture was added to each well and the system was incubated at 30° C. for another 1 hour. […] The substrate phosphorylation rate was obtained by calculating the ratio, and the activity of the kinase and the effect of the inhibitor on the kinase was further calculated. Every experiment was repeated at least three times.

JAK2 = JAK2 (Homo sapiens (Human), UniProt O60674); assay: Z′-Lyte kinase inhibitory activity test; assay type: biochemical
Protocol: as §1

JAK3 = JAK3 (Homo sapiens (Human), UniProt P52333); assay: Z′-Lyte kinase inhibitory activity test; assay type: biochemical; settings: for JAK3 kinase inhibitory activity and selectivity (in words): summary of Table 3, activity maintained at ATP 1 mM
Protocol: as §1

TYK2 = TYK2 (Homo sapiens (Human), UniProt P29597); assay: Z′-Lyte kinase inhibitory activity test; assay type: biochemical; settings: ATP concentration Km
Protocol: as §1

[1] = system: human acute myeloid leukemia cell line U937; assay: CCK-8 in vitro proliferation inhibition; assay type: cell-based; settings: read-out: Inhibitory activity (IC50) on cell proliferation, U937
Protocol: (§2) Cell lines: human chronic myeloid leukemia cell line K562, human acute myeloid leukemia cell line U937, human T lymphocyte leukemia cell line HuT78, and human T lymphoblastic lymphoma cell line Jurkat. Cells were purchased from the Chinese Academy of Sciences Stem Cell Bank or ATCC.
(§3) […] were cultured overnight and suspended cells were directly stimulated with drugs. […] Two repeats were set for each concentration, with a final volume of 200 μL. […] The absorbance values at 450 nm and 650 nm were measured using a microplate reader, and the increment Z (A450-A650) was derived. The inhibitory rate of drugs on cell growth was calculated by GraphPad Prism 8.0.0 through the following formula:
(§4) Inhibition rate (%)(ODcontrol−ODdosing)/ODcontrol×100%
(§5) The half inhibitory concentration (IC50) was calculated. Every experiment was repeated at least three times.

[2] = system: human T lymphoblastic lymphoma cell line Jurkat; assay: CCK-8 in vitro proliferation inhibition; assay type: cell-based; settings: 72 hours, read-out: Inhibitory activity (IC50) on cell proliferation, JURKAT
Protocol: as §2, §3, §4, §5

[3] = system: human chronic myeloid leukemia cell line K562; assay: CCK-8 in vitro proliferation inhibition; assay type: cell-based; settings: read-out: Inhibitory activity (IC50) on cell proliferation, K562
Protocol: as §2, §3, §4, §5

[4] = system: human T lymphocyte leukemia cell line HuT78; assay: CCK-8 in vitro proliferation inhibition; assay type: cell-based; settings: read-out: Inhibitory activity (IC50) on cell proliferation, HUT78
Protocol: as §2, §3, §4, §5

Sequence of JAK2 (O60674 whole entry): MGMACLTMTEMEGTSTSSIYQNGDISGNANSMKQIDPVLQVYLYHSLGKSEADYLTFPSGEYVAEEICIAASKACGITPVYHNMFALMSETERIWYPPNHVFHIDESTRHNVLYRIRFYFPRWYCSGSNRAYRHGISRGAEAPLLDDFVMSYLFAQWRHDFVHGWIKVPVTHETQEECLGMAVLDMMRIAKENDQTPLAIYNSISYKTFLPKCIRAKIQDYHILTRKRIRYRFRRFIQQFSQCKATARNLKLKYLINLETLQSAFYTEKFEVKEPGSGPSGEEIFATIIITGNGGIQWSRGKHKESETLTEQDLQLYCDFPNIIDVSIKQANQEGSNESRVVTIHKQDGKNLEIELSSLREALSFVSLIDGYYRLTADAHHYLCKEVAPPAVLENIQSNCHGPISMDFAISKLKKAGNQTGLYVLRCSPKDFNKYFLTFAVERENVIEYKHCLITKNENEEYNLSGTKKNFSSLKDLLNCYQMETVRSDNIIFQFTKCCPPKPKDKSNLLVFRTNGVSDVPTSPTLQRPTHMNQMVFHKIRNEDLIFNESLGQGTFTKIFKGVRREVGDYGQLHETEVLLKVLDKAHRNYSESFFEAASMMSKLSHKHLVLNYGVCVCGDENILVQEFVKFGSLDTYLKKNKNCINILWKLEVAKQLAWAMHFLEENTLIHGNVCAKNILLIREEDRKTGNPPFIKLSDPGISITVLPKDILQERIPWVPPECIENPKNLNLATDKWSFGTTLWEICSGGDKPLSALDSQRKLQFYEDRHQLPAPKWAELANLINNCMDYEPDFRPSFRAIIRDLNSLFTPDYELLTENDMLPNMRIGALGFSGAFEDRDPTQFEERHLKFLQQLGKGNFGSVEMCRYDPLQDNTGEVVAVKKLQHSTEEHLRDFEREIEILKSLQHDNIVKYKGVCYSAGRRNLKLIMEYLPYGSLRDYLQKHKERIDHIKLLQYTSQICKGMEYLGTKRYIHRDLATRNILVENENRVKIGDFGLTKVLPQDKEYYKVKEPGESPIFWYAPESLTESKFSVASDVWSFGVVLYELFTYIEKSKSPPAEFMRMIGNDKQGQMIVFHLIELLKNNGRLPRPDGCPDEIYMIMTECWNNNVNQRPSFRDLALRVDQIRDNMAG
Sequence of JAK1 (P23458 whole entry): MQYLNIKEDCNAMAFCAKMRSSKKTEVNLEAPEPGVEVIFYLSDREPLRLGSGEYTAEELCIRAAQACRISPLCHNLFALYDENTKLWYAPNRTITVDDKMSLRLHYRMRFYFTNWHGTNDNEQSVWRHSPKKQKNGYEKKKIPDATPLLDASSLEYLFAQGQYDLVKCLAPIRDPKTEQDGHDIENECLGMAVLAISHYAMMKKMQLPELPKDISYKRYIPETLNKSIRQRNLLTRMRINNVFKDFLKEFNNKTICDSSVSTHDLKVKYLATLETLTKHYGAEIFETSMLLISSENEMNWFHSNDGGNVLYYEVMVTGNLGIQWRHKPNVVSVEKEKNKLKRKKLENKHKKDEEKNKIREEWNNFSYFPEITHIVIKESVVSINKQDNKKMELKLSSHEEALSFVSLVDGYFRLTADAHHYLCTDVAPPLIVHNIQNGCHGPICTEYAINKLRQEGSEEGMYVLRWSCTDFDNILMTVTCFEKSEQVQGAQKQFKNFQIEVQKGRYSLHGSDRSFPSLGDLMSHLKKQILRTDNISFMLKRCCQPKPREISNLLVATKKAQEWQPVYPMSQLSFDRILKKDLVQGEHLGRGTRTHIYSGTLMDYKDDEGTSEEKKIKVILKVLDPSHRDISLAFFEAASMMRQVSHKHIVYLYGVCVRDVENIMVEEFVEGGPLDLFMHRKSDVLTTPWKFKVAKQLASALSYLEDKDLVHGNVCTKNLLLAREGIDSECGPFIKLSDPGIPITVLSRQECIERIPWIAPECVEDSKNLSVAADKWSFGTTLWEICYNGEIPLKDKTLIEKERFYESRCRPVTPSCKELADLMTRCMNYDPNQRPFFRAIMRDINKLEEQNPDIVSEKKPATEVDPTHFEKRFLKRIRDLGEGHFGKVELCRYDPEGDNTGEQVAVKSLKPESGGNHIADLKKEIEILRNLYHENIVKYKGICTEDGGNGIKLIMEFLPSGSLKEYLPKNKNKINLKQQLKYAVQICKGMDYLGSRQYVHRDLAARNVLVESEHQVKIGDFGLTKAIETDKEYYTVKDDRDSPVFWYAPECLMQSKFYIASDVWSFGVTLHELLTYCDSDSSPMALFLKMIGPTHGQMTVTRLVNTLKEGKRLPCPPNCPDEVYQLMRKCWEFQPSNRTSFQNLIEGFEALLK
Sequence of JAK3 (P52333 whole entry): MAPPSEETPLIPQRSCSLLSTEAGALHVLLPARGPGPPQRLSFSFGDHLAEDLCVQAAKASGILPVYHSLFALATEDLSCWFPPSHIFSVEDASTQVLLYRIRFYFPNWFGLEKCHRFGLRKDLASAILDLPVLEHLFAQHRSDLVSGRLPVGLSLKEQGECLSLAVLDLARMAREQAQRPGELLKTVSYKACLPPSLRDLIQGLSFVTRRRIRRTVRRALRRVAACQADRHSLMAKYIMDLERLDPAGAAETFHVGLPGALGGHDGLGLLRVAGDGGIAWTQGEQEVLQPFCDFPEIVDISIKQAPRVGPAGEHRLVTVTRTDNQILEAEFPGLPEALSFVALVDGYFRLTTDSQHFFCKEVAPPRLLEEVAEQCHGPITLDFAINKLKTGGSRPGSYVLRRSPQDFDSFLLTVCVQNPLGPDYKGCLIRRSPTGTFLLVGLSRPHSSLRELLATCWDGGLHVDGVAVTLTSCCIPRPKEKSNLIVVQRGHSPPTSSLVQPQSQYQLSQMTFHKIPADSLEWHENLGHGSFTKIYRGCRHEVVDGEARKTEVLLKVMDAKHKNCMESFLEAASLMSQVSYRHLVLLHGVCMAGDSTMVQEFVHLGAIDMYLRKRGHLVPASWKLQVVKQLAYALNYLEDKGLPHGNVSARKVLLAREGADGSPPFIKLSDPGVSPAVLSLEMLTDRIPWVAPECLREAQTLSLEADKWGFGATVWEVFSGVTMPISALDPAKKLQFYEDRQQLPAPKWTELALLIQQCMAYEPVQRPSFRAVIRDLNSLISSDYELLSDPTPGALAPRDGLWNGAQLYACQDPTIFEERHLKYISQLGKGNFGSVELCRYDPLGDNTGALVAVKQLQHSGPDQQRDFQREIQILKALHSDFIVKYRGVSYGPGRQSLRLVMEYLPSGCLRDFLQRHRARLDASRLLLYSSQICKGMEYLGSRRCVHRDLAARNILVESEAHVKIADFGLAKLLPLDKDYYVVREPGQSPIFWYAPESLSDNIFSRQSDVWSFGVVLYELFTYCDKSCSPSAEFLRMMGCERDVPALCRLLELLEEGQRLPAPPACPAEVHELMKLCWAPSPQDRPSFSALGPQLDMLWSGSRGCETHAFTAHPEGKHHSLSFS
Sequence of TYK2 (P29597 whole entry): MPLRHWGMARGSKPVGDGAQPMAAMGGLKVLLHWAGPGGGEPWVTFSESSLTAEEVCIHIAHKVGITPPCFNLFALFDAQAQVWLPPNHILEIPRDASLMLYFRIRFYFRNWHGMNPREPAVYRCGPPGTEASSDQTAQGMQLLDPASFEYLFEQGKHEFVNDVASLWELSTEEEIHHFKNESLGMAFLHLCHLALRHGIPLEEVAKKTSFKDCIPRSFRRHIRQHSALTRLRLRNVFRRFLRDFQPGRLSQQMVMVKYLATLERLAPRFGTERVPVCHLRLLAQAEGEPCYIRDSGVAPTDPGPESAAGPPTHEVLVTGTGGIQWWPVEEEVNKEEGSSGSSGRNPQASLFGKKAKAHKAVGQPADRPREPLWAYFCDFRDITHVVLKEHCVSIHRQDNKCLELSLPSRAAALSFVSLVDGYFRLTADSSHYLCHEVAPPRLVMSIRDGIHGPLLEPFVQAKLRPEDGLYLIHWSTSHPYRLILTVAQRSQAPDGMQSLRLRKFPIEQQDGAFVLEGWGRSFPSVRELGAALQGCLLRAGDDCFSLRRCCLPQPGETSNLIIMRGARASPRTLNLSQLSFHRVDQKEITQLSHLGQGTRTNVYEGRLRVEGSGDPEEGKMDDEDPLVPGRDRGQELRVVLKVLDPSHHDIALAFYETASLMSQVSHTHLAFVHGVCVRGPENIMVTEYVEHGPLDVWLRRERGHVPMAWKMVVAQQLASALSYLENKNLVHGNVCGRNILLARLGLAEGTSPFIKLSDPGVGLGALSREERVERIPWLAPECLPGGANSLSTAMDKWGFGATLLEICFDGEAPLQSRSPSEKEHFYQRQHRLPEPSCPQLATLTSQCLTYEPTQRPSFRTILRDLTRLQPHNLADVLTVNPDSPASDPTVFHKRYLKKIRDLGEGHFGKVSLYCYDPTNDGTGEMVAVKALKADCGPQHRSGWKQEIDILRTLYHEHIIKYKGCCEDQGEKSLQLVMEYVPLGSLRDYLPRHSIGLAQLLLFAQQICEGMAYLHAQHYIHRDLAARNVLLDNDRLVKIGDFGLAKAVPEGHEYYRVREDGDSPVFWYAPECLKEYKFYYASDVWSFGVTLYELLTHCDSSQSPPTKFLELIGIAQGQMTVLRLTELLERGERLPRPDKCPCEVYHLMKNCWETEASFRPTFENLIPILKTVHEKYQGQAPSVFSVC

## CN1CCN(C2CCN(c3ccc(Nc4ncc(Cl)c(O[C@@H]5CO[C@H]6[C@@H]5OC[C@H]6O)n4)cc3)CC2)CC1 [LS 4-145]
JAK1
  IC50: 470 nM
JAK2; ATP concentration Km
  IC50: 981 nM
JAK3; ATP concentration 1 mM
  IC50: 4.29 µM
JAK3; ATP concentration Km
  IC50: 0.066 µM
TYK2
  IC50: 301 nM
[1]; Homo sapiens, U-937, 72 hours
  IC50: 516 nM
[2]; Homo sapiens, Jurkat
  IC50: 9030 nM
[3]; Homo sapiens, K562, 72 hours
  IC50: 822 nM
[4]; Homo sapiens, HuT78, 72 hours
  IC50: 2390 nM

## C=CC(=O)Nc1cc(Nc2ncc(Cl)c(O[C@@H]3CO[C@H]4[C@@H]3OC[C@H]4O)n2)ccc1N1C[C@@H]2C[C@H]1CO2 [LS 5-152, N-(2-(((1S,4S)-2-oxa-5-azabicyclic[2.2.1]heptane-5-yl)-5-(5-chloro-4-(((3R,3aR,6R, 6aR)-6-hydroxyhexahydrofurano[3,2-b]furan-3-yl)oxygen)pyrimidin-2-yl)amino)phenyl) acrylamide]
JAK1
  IC50: 190 nM
JAK3; ATP concentration 1 mM
  IC50: 0.00129 µM
JAK3; ATP concentration Km
  IC50: 0.0015 µM
TYK2
  IC50: 148 nM
[1]; Homo sapiens, U-937, 72 hours
  IC50: 19.6 nM
[2]; Homo sapiens, Jurkat
  IC50: 288 nM
[3]; Homo sapiens, K562, 72 hours
  IC50: 47.2 nM
[4]; Homo sapiens, HuT78, 72 hours
  IC50: 428 nM

## C=CC(=O)Nc1cc(Nc2ncc(Cl)c(O[C@@H]3CO[C@H]4[C@@H]3OC[C@H]4OC)n2)ccc1N1CCC(N2CCN(C)CC2)CC1 [LS 6-16]
JAK1
  IC50: 533 nM
JAK2
  IC50: 967 nM
JAK3
  IC50: 0.00812 µM and 0.0125 µM
TYK2
  IC50: 906 nM
[1]; 72 hours
  IC50: 24 nM
[2]
  IC50: 136 nM
[3]; 72 hours
  IC50: 191 nM
[4]; 72 hours
  IC50: 121 nM

## C=CC(=O)Nc1cc(Nc2ncc(Cl)c(O[C@@H]3CO[C@H]4[C@@H]3OC[C@H]4O)n2)ccc1N1C[C@H]2C[C@@H]1CN2C [LS 5-154]
JAK1
  IC50: 800 nM
JAK2; ATP concentration Km
  IC50: 524 nM
JAK3; ATP concentration 1 mM
  IC50: 0.00159 µM
JAK3; ATP concentration Km
  IC50: 0.00156 µM
JAK3
  JAK3 kinase inhibitory activity and selectivity (in words): strong and selective JAK3 kinase inhibitory activity
TYK2
  IC50: 188 nM
[1]; Homo sapiens, U-937, 72 hours
  IC50: 34 nM
[2]; Homo sapiens, Jurkat
  IC50: 346 nM
[3]; Homo sapiens, K562, 72 hours
  IC50: 2410 nM
[4]; Homo sapiens, HuT78, 72 hours
  IC50: 717 nM

## COc1cc(Nc2ncc(Cl)c(O[C@@H]3CO[C@H]4[C@@H]3OC[C@H]4O)n2)ccc1N1CCC(N2CCN(C)CC2)CC1 [LS 4-143]
JAK1
  IC50: 618 nM
JAK2; ATP concentration Km
  IC50: 541 nM
JAK3; ATP concentration 1 mM, in μM
  IC50: > 10 µM
JAK3; ATP concentration Km
  IC50: 0.0474 µM
TYK2
  IC50: 421 nM
[1]; Homo sapiens, U-937, 72 hours
  IC50: 739 nM
[2]; Homo sapiens, Jurkat
  IC50: 6340 nM
[3]; Homo sapiens, K562, 72 hours
  IC50: 354 nM
[4]; Homo sapiens, HuT78, 72 hours
  IC50: 3380 nM

## C=CC(=O)Nc1cc(Nc2ncc(Cl)c(O[C@@H]3CO[C@H]4[C@@H]3OC[C@H]4O)n2)ccc1N1CCC(N(C)C)C1 (stereo partly shown) [LS 5-150]
JAK1
  IC50: 270 nM
JAK2; ATP concentration Km
  IC50: 606 nM
JAK3; ATP concentration 1 mM
  IC50: 0.00174 µM
JAK3; ATP concentration Km
  IC50: 0.00198 µM
JAK3
  JAK3 kinase inhibitory activity and selectivity (in words): strong and selective JAK3 kinase inhibitory activity
TYK2
  IC50: 186 nM
[1]; Homo sapiens, U-937, 72 hours
  IC50: 15.8 nM
[2]; Homo sapiens, Jurkat
  IC50: 275 nM
[3]; Homo sapiens, K562, 72 hours
  IC50: 897 nM
[4]; Homo sapiens, HuT78, 72 hours
  IC50: 272 nM

## C=CC(=O)Nc1cc(Nc2ncc(Cl)c(O[C@@H]3CO[C@H]4[C@@H]3OC[C@H]4O)n2)ccc1N1CCOCC1 [LS 5-66]
JAK1
  IC50: 1120 nM
JAK2; ATP concentration Km
  IC50: 1160 nM
JAK3; ATP concentration 1 mM
  IC50: 0.0144 µM
JAK3; ATP concentration Km
  IC50: 0.0059 µM
JAK3
  JAK3 kinase inhibitory activity and selectivity (in words): strong and selective JAK3 kinase inhibitory activity
TYK2
  IC50: 335 nM
[1]; Homo sapiens, U-937, 72 hours
  IC50: 87.5 nM
[2]; Homo sapiens, Jurkat
  IC50: 2640 nM
[3]; Homo sapiens, K562, 72 hours
  IC50: 1860 nM
[4]; Homo sapiens, HuT78, 72 hours
  IC50: 1090 nM

## C=CC(=O)Nc1cc(Nc2ncc(Cl)c(O[C@@H]3CO[C@H]4[C@@H]3OC[C@H]4O)n2)ccc1N1CCN(CC)CC1 [LS 5-143]
JAK1
  IC50: 481 nM
JAK2; ATP concentration Km
  IC50: 362 nM
JAK3; ATP concentration 1 mM
  IC50: 0.00217 µM
JAK3; ATP concentration Km
  IC50: 0.00219 µM
JAK3
  JAK3 kinase inhibitory activity and selectivity (in words): strong and selective JAK3 kinase inhibitory activity
TYK2
  IC50: 166 nM
[1]; Homo sapiens, U-937, 72 hours
  IC50: 12 nM
[2]; Homo sapiens, Jurkat
  IC50: 128 nM
[3]; Homo sapiens, K562, 72 hours
  IC50: 216 nM
[4]; Homo sapiens, HuT78, 72 hours
  IC50: 75.3 nM

## C=CC(=O)Nc1cc(Nc2ncc(Cl)c(O[C@@H]3CO[C@H]4[C@@H]3OC[C@H]4O)n2)ccc1N(C)CCN(C)C [LS 5-88]
JAK1
  IC50: 2870 nM
JAK3; ATP concentration 1 mM
  IC50: 0.00225 µM
JAK3; ATP concentration Km
  IC50: 0.00193 µM
TYK2
  IC50: 424 nM
[1]; Homo sapiens, U-937, 72 hours
  IC50: 15.3 nM
[2]; Homo sapiens, Jurkat
  IC50: 111 nM
[3]; Homo sapiens, K562, 72 hours
  IC50: 417 nM
[4]; Homo sapiens, HuT78, 72 hours
  IC50: 81.1 nM

— US20230348487A1, “2-AMINOPYRIMIDINE COMPOUND AND PHARMACEUTICAL COMPOSITION THEREOF AND APPLICATION THEREOF” (GUANGZHOU SALUSTIER BIOSCIENCES CO., LTD., priority 2021, published 2023)
